From ChEMBL document CHEMBL5050844 (2019)

What was measured:
[1] = Induction of anti-CD3 antibodies-stimulated human CD8+ T cell activation at 10 uM assessed fold increase in cell proliferation measured by flow cytometry analysis; format: functional, T cell line; note: reference of the scale not given here
[2] = Induction of anti-CD3 antibodies-stimulated human exhausted CD8+ T cell activation assessed fold increase in CTLA4 expression measured by flow cytometry analysis; format: functional, T cell line; note: reference of the scale not given here
[3] = Induction of anti-CD3 antibodies-stimulated human T cell activation at 1 uM assessed fold increase in IL-2 secretion measured by ELISA assay; format: functional, T cell line; note: reference of the scale not given here
[4] = Induction of anti-CD3/CD28 antibodies-stimulated human T cell activation at 0.3 uM assessed fold increase in CD25 expression measured by ELISA assay; format: functional, T cell line
[5] = Induction of anti-CD3/CD28 antibodies-stimulated human anergic T cell activation at 1.11 uM assessed fold increase in IFN-gamma secretion measured by ELISA assay; format: functional, T cell line
[6] = Induction of anti-CD3 antibodies-stimulated human T cell activation at 10 uM assessed fold increase in GM-CSF secretion measured by ELISA assay; format: functional, T cell line; note: reference of the scale not given here
[7] = Induction of anti-CD3 antibodies-stimulated human T cell activation at 10 uM assessed fold increase in IFN-gamma secretion measured by ELISA assay; format: functional, T cell line; note: reference of the scale not given here
[8] = Induction of anti-CD3 antibodies-stimulated human T cell activation at 1.11 uM assessed fold increase in GM-CSF secretion measured by ELISA assay; format: functional, T cell line; note: reference of the scale not given here
[9] = Induction of anti-CD3/CD28 antibodies-stimulated human T cell activation at 1 uM assessed fold increase in IL-2 secretion measured by ELISA assay; format: functional, T cell line
[10] = Induction of anti-CD3 antibodies-stimulated human CD4+ T cell activation at 10 uM assessed fold increase in CD69 expression measured by flow cytometry analysis; format: functional, T cell line; note: reference of the scale not given here
[11] = Induction of anti-CD3/CD28 antibodies-stimulated human CD8+ T cell activation at 10 uM assessed fold increase in CD69 expression measured by flow cytometry analysis; format: functional, T cell line
[12] = Induction of activation of human CD56+ CD3- NK cells co-cultured with human K562 cells in 1:1 ratio and assessed as increase in TNF-alpha secretion at 2.5 uM measured by ELISA assay; format: functional, Natural killer cell
[13] = Induction of anti-CD3/CD28 antibodies-stimulated human CD8+ T cell activation at 10 uM assessed fold increase in cell proliferation measured by flow cytometry analysis; format: functional, T cell line
[14] = Induction of anti-CD3 antibodies-stimulated human CD8+ T cell activation at 1.11 uM assessed fold increase in cell proliferation measured by flow cytometry analysis; format: functional, T cell line; note: reference of the scale not given here
B cell = experiment: Induction of anti-IgM-stimulated human CD20+ B cell activation at 10 to 1000 uM assessed as increase in CD69 expression measured as mean fluorescence intensity AUC by flow cytometry analysis; format: functional, cell-based; settings: dose 10-1000 µM
[15] = Induction of anti-CD3/CD28 antibodies-stimulated human T cell activation at 1.11 uM assessed fold increase in GM-CSF secretion measured by ELISA assay; format: functional, T cell line
[16] = Induction of anti-CD3 antibodies-stimulated human CD8+ T cell activation at 10 uM assessed fold increase in CD69 expression measured by flow cytometry analysis; format: functional, T cell line; note: reference of the scale not given here
[17] = Induction of anti-CD3 antibodies-stimulated human exhausted CD4+ T cell activation assessed fold increase in CTLA4 expression measured by flow cytometry analysis; format: functional, T cell line; note: reference of the scale not given here
[18] = Induction of anti-CD3 antibodies-stimulated human CD8+ T cell activation at 1.11 uM assessed fold increase in CD69 expression measured by flow cytometry analysis; format: functional, T cell line; note: reference of the scale not given here
[19] = Induction of anti-CD3 antibodies-stimulated human exhausted T cell activation assessed fold increase in IL-2 secretion measured by ELISA assay; format: functional, T cell line; note: reference of the scale not given here
[20] = Induction of anti-CD3 antibodies-stimulated human T cell activation at 8 uM assessed fold increase in IL-2 secretion measured by ELISA assay; format: functional, T cell line; note: reference of the scale not given here
[21] = Induction of anti-CD3/CD28 antibodies-stimulated human T cell activation at 10 uM assessed fold increase in TNF-alpha secretion measured by ELISA assay; format: functional, T cell line
[22] = Induction of anti-CD3/CD28 antibodies-stimulated human CD4+ T cell activation at 1.11 uM assessed fold increase in cell proliferation measured by flow cytometry analysis; format: functional, T cell line
[23] = Induction of anti-CD3/CD28 antibodies-stimulated human T cell activation at 4 uM assessed fold increase in IL-2 secretion measured by ELISA assay; format: functional, T cell line
[24] = Induction of activation of human CD56+ CD3- NK cells co-cultured with human K562 cells in 1:1 ratio and assessed as increase in IFN-gamma secretion at 0.625 uM measured by ELISA assay; format: functional, Natural killer cell
[25] = Induction of anti-CD3/CD28 antibodies-stimulated human T cell activation at 1.11 uM assessed fold increase in IFN-gamma secretion measured by ELISA assay; format: functional, T cell line
[26] = Induction of anti-CD3 antibodies-stimulated human T cell activation at 1 uM assessed fold increase in CD25 expression measured by ELISA assay; format: functional, T cell line; note: reference of the scale not given here
[27] = Induction of anti-CD3/CD28 antibodies-stimulated human CD8+ T cell activation at 1.11 uM assessed fold increase in cell proliferation measured by flow cytometry analysis; format: functional, T cell line
[28] = Induction of anti-CD3/CD28 antibodies-stimulated human CD4+ T cell activation at 10 uM assessed fold increase in cell proliferation measured by flow cytometry analysis; format: functional, T cell line
[29] = Induction of anti-CD3/CD28 antibodies-stimulated human T cell activation at 4 uM assessed fold increase in CD25 expression measured by ELISA assay; format: functional, T cell line
[30] = Induction of anti-CD3/CD28 antibodies-stimulated human CD8+ T cell activation at 1.11 uM assessed fold increase in CD69 expression measured by flow cytometry analysis; format: functional, T cell line
[31] = Induction of activation of human CD56+ CD3- NK cells co-cultured with human K562 cells in 1:1 ratio and assessed as increase in IFN-gamma secretion at 2.5 uM measured by ELISA assay; format: functional, Natural killer cell
[32] = Induction of anti-CD3/CD28 antibodies-stimulated human T cell activation at 1.11 uM assessed fold increase in TNF-alpha secretion measured by ELISA assay; format: functional, T cell line
[33] = Induction of anti-CD3 antibodies-stimulated human CD4+ T cell activation at 1.11 uM assessed fold increase in CD69 expression measured by flow cytometry analysis; format: functional, T cell line; note: reference of the scale not given here
[34] = Induction of activation of human CD56+ CD3- NK cells co-cultured with human K562 cells in 1:1 ratio and assessed as increase in IFN-gamma secretion at 10 uM measured by ELISA assay; format: functional, Natural killer cell
[35] = Induction of activation of human CD56+ CD3- NK cells co-cultured with human K562 cells in 1:1 ratio and assessed as increase in TNF-alpha secretion at 0.625 uM measured by ELISA assay; format: functional, Natural killer cell
[36] = Induction of anti-CD3 antibodies-stimulated human exhausted T cell activation assessed fold increase in GM-CSF secretion measured by ELISA assay; format: functional, T cell line; note: reference of the scale not given here
[37] = Induction of anti-CD3/CD28 antibodies-stimulated human anergic T cell activation at 0.37 uM assessed fold increase in IFN-gamma secretion measured by ELISA assay; format: functional, T cell line

SMILES	fold change (FC) [1]	fold change (FC) [2]	fold change (FC) [3]	fold change (FC) [4]	fold change (FC) [5]	fold change (FC) [6]	fold change (FC) [7]	fold change (FC) [8]	fold change (FC) [9]	fold change (FC) [10]	fold change (FC) [11]	fold change (FC) [12]	fold change (FC) [13]	fold change (FC) [14]	AUC (B cell)	fold change (FC) [15]	fold change (FC) [16]	fold change (FC) [17]	fold change (FC) [18]	fold change (FC) [19]	other results
C[C@H](c1cc2c(c(C(F)(F)F)c1)CN(c1cccc(C3(Cc4nncn4C)COC3)c1)C2=O)N1CC[C@H](F)C1	>4	>1.61	>=0.201	1.31	>4.01	2.01	>4	1.51	>=7.5	>1.601	1.201	2.01	>4	3.01	1.01	2.01	1.401	>1.61	1.201	>3.01	fold change (FC) [20]: >=0.201; fold change (FC) [21]: 2.01; fold change (FC) [22]: >4; fold change (FC) [23]: >=7.5; fold change (FC) [24]: 2.01; fold change (FC) [25]: <=2; fold change (FC) [26]: >=1.001; fold change (FC) [27]: 3.01; fold change (FC) [28]: >4; fold change (FC) [29]: 1.31; fold change (FC) [30]: 1.201; fold change (FC) [31]: 2.01; fold change (FC) [32]: 2.01; fold change (FC) [33]: 1.401; fold change (FC) [34]: >=5; fold change (FC) [35]: 2.01; fold change (FC) [36]: >1.61; fold change (FC) [37]: 2.51
C[C@H](Cc1nncn1C)c1cccc(NC(=O)c2nc(C(F)(F)F)c[nH]2)c1	>4	<=1.4	0.051	1.01	<=2.5	2.01	2.01	1.51	2.51	1.401	1.201	2.01	3.01	2.01	< 0.5	1.51	1.201	<=1.4	<=1.2	>3.01	fold change (FC) [20]: >=0.201; fold change (FC) [21]: 2.01; fold change (FC) [22]: 2.01; fold change (FC) [23]: 2.51; fold change (FC) [24]: 2.01; fold change (FC) [25]: <=2; fold change (FC) [26]: 0.801; fold change (FC) [27]: 2.01; fold change (FC) [28]: >4; fold change (FC) [29]: 1.01; fold change (FC) [30]: <=1.2; fold change (FC) [31]: 1.01; fold change (FC) [32]: <=1.5; fold change (FC) [33]: 1.201; fold change (FC) [34]: 2.01; fold change (FC) [35]: 1.01; fold change (FC) [36]: <=1.4; fold change (FC) [37]: <=2.5
C[C@H](Cc1nncn1C)c1cccc(N2Cc3c(cc(CN4CC[C@](C)(O)C4)cc3C(F)(F)F)C2=O)c1	>4	>1.61	0.101	1.01	>4.01	>4	<=2	2.01	5	>1.601	1.201	2.01	>4	>4	0.5	2.01	1.401	1.41	1.201	2.51	fold change (FC) [20]: >=0.201; fold change (FC) [21]: 2.01; fold change (FC) [22]: >4; fold change (FC) [23]: >=7.5; fold change (FC) [24]: 2.01; fold change (FC) [25]: 3.01; fold change (FC) [26]: >=1.001; fold change (FC) [27]: 3.01; fold change (FC) [28]: >4; fold change (FC) [29]: 1.31; fold change (FC) [30]: 1.201; fold change (FC) [31]: 2.01; fold change (FC) [32]: 2.01; fold change (FC) [33]: >1.601; fold change (FC) [34]: >=5; fold change (FC) [35]: 1.01; fold change (FC) [36]: >1.61; fold change (FC) [37]: <=2.5
Cc1cc(C(=O)Nc2cccc([C@H](C)Cc3nncn3C)c2)nc(C2CC2)n1	>4	>1.61	>=0.201	1.51	<=2.5	2.01	>4	2.01	>=7.5	>1.601	1.201	2.01	>4	<=2	> 1.51	>4	1.401	>1.61	<=1.2	<=2.5	fold change (FC) [20]: >=0.201; fold change (FC) [21]: >4; fold change (FC) [22]: <=2; fold change (FC) [23]: >=7.5; fold change (FC) [24]: 2.01; fold change (FC) [25]: 2.01; fold change (FC) [26]: >=1.001; fold change (FC) [27]: <=2; fold change (FC) [28]: >4; fold change (FC) [29]: >=1.76; fold change (FC) [30]: <=1.2; fold change (FC) [31]: 2.01; fold change (FC) [32]: 2.01; fold change (FC) [33]: <=1.2; fold change (FC) [34]: 2.01; fold change (FC) [35]: 1.01; fold change (FC) [36]: >1.61; fold change (FC) [37]: <=2.5
